Data on 28 compounds can be found in US7737136B2 (N.V. Organon, priority 2002, dated 2010).

In one test the target is T1, human progesterone receptor-B (Homo sapiens, UniProt P06401).
T1 construct: expressed in transfected cells; host or cells: Chinese hamster ovary (CHO) cells, line CHO-PRB-pMMTV-LUC 1E2-A2
T1 sequence (P06401 1-933): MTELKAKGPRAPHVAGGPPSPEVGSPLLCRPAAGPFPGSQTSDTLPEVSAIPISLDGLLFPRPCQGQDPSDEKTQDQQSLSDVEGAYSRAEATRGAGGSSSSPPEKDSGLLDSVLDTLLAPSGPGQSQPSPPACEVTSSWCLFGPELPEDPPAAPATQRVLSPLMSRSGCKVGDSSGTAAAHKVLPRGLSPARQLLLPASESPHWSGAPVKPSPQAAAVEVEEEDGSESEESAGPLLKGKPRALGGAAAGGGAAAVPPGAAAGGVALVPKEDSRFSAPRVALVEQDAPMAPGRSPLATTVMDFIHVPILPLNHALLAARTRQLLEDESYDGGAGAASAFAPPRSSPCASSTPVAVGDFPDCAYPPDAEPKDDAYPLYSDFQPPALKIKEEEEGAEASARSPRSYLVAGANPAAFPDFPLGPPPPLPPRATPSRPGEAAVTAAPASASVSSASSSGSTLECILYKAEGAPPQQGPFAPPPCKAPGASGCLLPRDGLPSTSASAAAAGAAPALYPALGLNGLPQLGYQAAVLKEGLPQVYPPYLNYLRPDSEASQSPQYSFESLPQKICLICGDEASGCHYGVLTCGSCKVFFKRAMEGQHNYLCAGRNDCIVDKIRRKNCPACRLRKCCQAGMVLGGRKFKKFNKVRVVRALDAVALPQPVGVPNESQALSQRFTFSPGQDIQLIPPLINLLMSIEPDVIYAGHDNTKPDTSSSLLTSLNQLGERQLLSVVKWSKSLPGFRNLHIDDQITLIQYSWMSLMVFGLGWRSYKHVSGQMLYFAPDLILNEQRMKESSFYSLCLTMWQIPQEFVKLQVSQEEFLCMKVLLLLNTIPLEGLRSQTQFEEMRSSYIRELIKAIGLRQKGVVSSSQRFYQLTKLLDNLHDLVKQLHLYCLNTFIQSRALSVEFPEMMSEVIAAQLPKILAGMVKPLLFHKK
As to the kind of experiment: Progesterone receptor-B transactivation assay, progestagenic (agonist) activity, CHO-PRB-pMMTV-LUC 1E2-A2 cells.
Details: not given
Format: cell-based. How it is done: (§1) The (anti-)progestagenic activity of a compound of the invention (EC 50 and intrinsic activity) was determined in an in vitro bioassay of Chinese hamster ovary (CHO) cells stably transfected with the human progesterone receptor-B expression plasmid and with a reporter plasmid in which the MMTV-promoter is linked to the luciferase reporter gene. […] The cells were cultured with charcoal-treated supplemented defined bovine calf serum from Hyclone (Utah, USA) in Dulbecco's Modified Eagles Medium/Nutrient Mixture F-12 (DMEM/HAM F12 in ratio 1:1) from Gibco (Paisley, UK).
Regarding `N[C@H]1CCCN2c3cc(F)ccc3Oc3ccccc3[C@H]12` (relative stereo) [Example 1, trans-7-Fluoro-2,3,4,14b-tetrahydro-1H-dibenzo[b,f]pyrido[1,2-d][1,4]oxazepine-1-amine], the EC50 (usually the concentration at which the effect is half-maximal) was 100 to 10000 nM.

Staying with this test, now noted: CHO cells stably transfected with human progesterone receptor-B and MMTV-luciferase reporter; read-out: Progestagenic activity EC50.
Turning to `O=C(N[C@H]1CCCN2c3cc(Cl)c(Br)cc3Oc3ccccc3[C@H]12)C(F)(F)F` (relative stereo) [Example 39, trans-N-(8-Bromo-7-chloro-2,3,4,14b-tetrahydro-1H-dibenzo[b,f]pyrido[1,2-d][1,4]oxazepin-1-yl)-2,2,2-trifluoroacetamide], the half-maximal effective concentration (EC50) was in the range of 100 to 10000 nM.
Turning to `O=C(N[C@H]1CCCN2c3c(Br)cc(F)cc3Oc3ccccc3[C@H]12)C(F)(F)F` (relative stereo) [Example 56, trans-N-(6-Bromo-8-fluoro-2,3,4,14b-tetrahydro-1H-dibenzo[b,f]pyrido[1,2-d][1,4]oxazepin-1-yl)-2,2,2-trifluoroacetamide], the concentration giving a half-maximal response (EC50) lay within 100 to 10000 nM.
On to `O=C(N[C@H]1CCCN2c3cc(Cl)ccc3Oc3ccccc3[C@H]12)OCCl` (relative stereo) [Example 30, Trans-(7-Chloro-2,3,4,14b-tetrahydro-1H-dibenzo[b,f]pyrido[1,2-d][1,4]oxazepin-1-yl)carbamic Acid Chloromethyl Ester], for which the EC50 fell in the range of 100 to 10000 nM.
Still for that read-out and setting: the value for `C=Cc1cccc2c1N1CCC[C@H](NC(=O)C(F)(F)F)[C@H]1c1ccccc1O2` (relative stereo) [Example 54, trans-N-(6-Ethenyl-2,3,4,14b-tetrahydro-1H-dibenzo[b,f]pyrido[1,2-d][1,4]oxazepin-1-yl)-2,2,2-trifluoroacetamide] was < 10 nM; that for `FCC(=S)N[C@H]1CCCN2c3cc(Cl)ccc3Oc3ccccc3[C@H]12` [Example 22] was < 10 nM; that for `CS(=O)(=O)N(c1cc2c(cc1Cl)N1CCC[C@H](NC(=O)C(F)(F)F)[C@H]1c1ccccc1O2)S(C)(=O)=O` (relative stereo) [Example 44, trans-N-(7-Chloro-2,3,4,14b-tetrahydro-8-[bis(methylsulfonyl)amino]-1H-dibenzo[b,f]pyrido[1,2-d][1,4]oxazepin-1-yl)-2,2,2-trifluoroacetamide] was 100 to 10000 nM.
Same read-out and setting: the value for `CC(=O)N[C@H]1CCCN2c3c(ccc(Cl)c3Cl)Oc3ccccc3[C@H]12` (relative stereo) [Example 47, trans-N-(6,7-Dichloro-2,3,4,14b-tetrahydro-1H-dibenzo[b,f]pyrido[1,2-d][1,4]oxazepin-1-yl)acetamide] was < 10 nM.
On the same count and under the same terms, then `FC(F)(F)C(=S)N[C@H]1CCCN2c3cc(Cl)ccc3Oc3ccccc3[C@H]12` (relative stereo) [Example 19], with < 10 nM; and `O=C(N[C@H]1CCCN2c3c(ccc(Cl)c3Cl)Oc3ccccc3[C@H]12)C(F)(F)F` (relative stereo) [Example 38B, trans-N-(6,7-Dichloro-2,3,4,14b-tetrahydro-1H-dibenzo[b,f]pyrido[1,2-d][1,4]oxazepin-1-yl)-2,2,2-trifluoroacetamide], with < 10 nM.
With `O=C(N[C@H]1CCCN2c3cc(Br)ccc3Oc3ccccc3[C@H]12)C(F)(F)F` (relative stereo) [Example 61, trans-N-(7-Bromo-2,3,4,14b-tetrahydro-1H-dibenzo[b,f]pyrido[1,2-d][1,4]oxazepin-1-yl)-2,2,2-trifluoroacetamide], the concentration giving a half-maximal response (EC50) is < 10 nM.
Same read-out and setting: the value for `S=CN[C@H]1CCCN2c3cc(Cl)ccc3Oc3ccccc3[C@H]12` (relative stereo) [Example 18, trans-N-(7-Chloro-2,3,4,14b-tetrahydro-1H-dibenzo[b,f]pyrido[1,2-d][1,4]oxazepin-1-yl)methanethioamide] was 100 to 10000 nM; that for `O=C(N[C@H]1CCCN2c3cc(Cl)ccc3Oc3cc(Br)ccc3[C@H]12)C(F)(F)F` (relative stereo) [Example 68, trans-N-(12-Bromo-7-chloro-2,3,4,14b-tetrahydro-1H-dibenzo[b,f]pyrido[1,2-d][1,4]oxazepin-1-yl)-2,2,2-trifluoroacetamide] was 10 to 100 nM.
As for `CN1c2ccccc2[C@@H]2[C@@H](NC(=O)C(F)(F)F)CCCN2c2cc(Cl)ccc21` (relative stereo) [Example 76, trans-N-(7-Chloro-1,2,3,4,10,14b-hexahydro-10-methyl-dibenzo[b,f]pyrido[1,2-d][1,4]diazepin-1-yl)-2,2,2-trifluoroacetamide], the EC50 was < 10 nM.
Consider `O=C(N[C@H]1CCCN2c3cc(Cl)ccc3Oc3cc(F)ccc3[C@H]12)C(F)(F)F` (relative stereo) [Example 74, trans-N-(7-Chloro-12-fluoro-2,3,4,14b-tetrahydro-1H-dibenzo[b,f]pyrido[1,2-d][1,4]oxazepin-1-yl)-2,2,2-trifluoroacetamide], for which the half-maximal effective concentration (EC50) lay within 10 to 100 nM.
Still for that read-out and setting: the value for `O=C(N[C@H]1CCCN2c3cc(Cl)ccc3Sc3ccccc3[C@H]12)C(F)(F)F` (relative stereo) [Example 6, trans-2,2,2-Trifluoro-N-(7-chloro-2,3,4,14b-tetrahydro-1H-dibenzo[b,f]pyrido[1,2-d][1,4]thiazepin-1-yl)acetamide] was < 10 nM.
On the same count and under the same terms, the value for `O=C(N[C@H]1CCCN2c3c(Cl)cccc3Oc3ccccc3[C@H]12)C(F)(F)F` (relative stereo) [Example 42B] was 100 to 10000 nM; that for `O=C(N[C@H]1CCCN2c3c(Br)cccc3Oc3ccccc3[C@H]12)C(F)(F)F` (relative stereo) [Example 51, trans-N-(6-Bromo-2,3,4,14b-tetrahydro-1H-dibenzo[b,f]pyrido[1,2-d][1,4]oxazepin-1-yl)-2,2,2-trifluoroacetamide] was < 10 nM.
On the same count and under the same terms, the value for `Cc1ccc2c(c1)Oc1ccc(Cl)cc1N1CCC[C@H](NC(=O)C(F)(F)F)[C@@H]21` (relative stereo) [Example 70, trans-N-(7-Chloro-2,3,4,14b-tetrahydro12-methyl-1H-dibenzo[b,f]pyrido[1,2-d][1,4]oxazepin-1-yl)-2,2,2-trifluoroacetamide] was 10 to 100 nM.
In the case of `N#Cc1ccc2c(c1)N1CCC[C@H](NC(=O)C(F)(F)F)[C@H]1c1ccccc1O2` (relative stereo) [Example 63, trans-2,3,4,14b-Tetrahydro-1-[(trifluoroacetyl)amino]-1H-dibenzo[b,f]pyrido[1,2-d][1,4]oxazepine-7-carbonitrile], the 50% effective concentration (EC50) is < 10 nM.
With `N#Cc1cc(F)cc2c1N1CCC[C@H](NC(=O)C(F)(F)F)[C@H]1c1ccccc1O2` (relative stereo) [Example 58, trans-8-Fluoro-2,3,4,14b-tetrahydro-1-[(trifluoroacetyl)amino]-1H-dibenzo[b,f]pyrido-[1,2-d][1,4]oxazepine-6-carbonitrile], the 50% effective concentration (EC50) is < 10 nM.
For the compound `FC(F)(F)C(=S)NC1CCCN2c3cc(Cl)ccc3Cc3ccccc3C12` (centres unmarked) [Example 20], the concentration for a half-maximal effect (EC50) is < 10 nM.
The same measure, in the same setting: the value for `O=C(N[C@H]1CCCN2c3c(ccc(Cl)c3Cl)Oc3cc(Br)ccc3[C@H]12)C(F)(F)F` (relative stereo) [Example 71, trans-N-(12-Bromo-6,7-dichloro-2,3,4,14b-tetrahydro-1H-dibenzo[b,f]pyrido[1,2-d][1,4]oxazepin-1-yl)-2,2,2-trifluoroacetamide] was < 10 nM.
Still for that read-out and setting: the value for `N[C@H]1CCCN2c3cc(Cl)ccc3Oc3ccccc3[C@H]12` (relative stereo) [Example 3, trans-7-Chloro-2,3,4,14b-tetrahydro-1H-dibenzo[b,f]pyrido[1,2-d][1,4]oxazepine-1-amine] was 100 to 10000 nM.

A further test deals with T1, human progesterone receptor-B. As to the kind of experiment: Progesterone receptor-B transactivation assay, antiprogestagenic activity (inhibition of luciferase transactivation induced by Org 2058). Format: cell-based. The settings on record: in the presence of 1 nM (16α)-16-ethyl-21-hydroxy-19-norpregn-4-ene-3,20-dione (Org 2058); read-out: Anti-progestagenic activity EC50. How it is done:
as §1
`CC(C)CNC(=S)N[C@H]1CCCN2c3cc(Cl)ccc3Oc3ccccc3[C@H]12` (relative stereo) [Example 32, trans-N-(7-Chloro-2,3,4,14b-tetrahydro-1H-dibenzo[b,f]pyrido[1,2-d][1,4]oxazepin-1-yl)-N′-(2-methylpropyl)thiourea]: the concentration for a half-maximal effect (EC50) was in the range of 100 to 10000 nM.
Still for that read-out and setting: the value for `O=C(N[C@H]1CCCN2c3cc(Cl)c(Br)cc3Oc3ccccc3[C@H]12)C(F)(F)F` (relative stereo) [Example 39, trans-N-(8-Bromo-7-chloro-2,3,4,14b-tetrahydro-1H-dibenzo[b,f]pyrido[1,2-d][1,4]oxazepin-1-yl)-2,2,2-trifluoroacetamide] was 100 to 10000 nM; that for `S=C(NC1CCCCC1)N[C@H]1CCCN2c3cc(Cl)ccc3Oc3ccccc3[C@H]12` (relative stereo) [Example 33] was 100 to 10000 nM; that for `FCC(=S)NC1CCCN2c3cc(Cl)ccc3Oc3ccccc3C12` [22 (1S,14bR isomer)] was 10 to 100 nM.
Regarding `CC(C)(C)NC(=S)NC1CCCN2c3cc(Cl)ccc3Oc3ccccc3C12` (centres unmarked) [Example 35], the 50% effective concentration (EC50) lay within 100 to 10000 nM.
